Experiments:
[1] = system: SUM159-M1a cells; assay: Lung metastasis xenograft, SUM159-M1a cells by tail vein injection, BLI; format: in vivo, mouse; settings: MBE1 IP in conjunction with paclitaxel, tail vein injection model
Experimental: (§1) All xenograft experiments were conducted on 8-week old female mice (athymic Nu/Nu, or NOD/SCID Gamma). Xenograft experiments were conducted using 125,000 SUM159-M1a cells in 100 μL PBS for tail vein or intracardiac injection. Mice were randomized following injection. Bioluminescent imaging (BLI) was conducted using the IVIS 200 system and retroorbital luciferin injection. For drug treatment, MBE1 (prepared as above) was given to mice via IP injection in conjunction with paclitaxel (5 mg/mL in 10% ethanol, 10% Kolliphor EL, 80% PBS) at the time intervals and dosages indicated in FIG. 5A (tail vein injection) and FIG. 6A (intracardiac injection).
(§2) FIG. 5B is a line graph of lung metastasis, as measured using bioluminescence imaging (BLI), versus time (days), and compares lung metastasis in the presence and absence of MBE1 in the mice from the experiment outlined in FIG. 5A. FIG. 6B is a line graph of bone metastasis, as measured using BLI, versus time (days), and compares bone metastasis in the presence and absence of MBE1 in the mice from the experiment outlined in FIG. 6A.

[2] = target: T1, ALDH1a3 (Homo sapiens, UniProt P47895); assay: ALDEFLUOR assay in cell lines of a variety of cancer types; format: cell-based; settings: ALDEFLUOR-positive cells, various cancer cell lines
T1 construct: endogenous in cells; host or cells: panel of cancer cell lines (e.g. Sum159-M1a, MDA-MB-468 and others of b212)
T1 sequence (P47895 2-512): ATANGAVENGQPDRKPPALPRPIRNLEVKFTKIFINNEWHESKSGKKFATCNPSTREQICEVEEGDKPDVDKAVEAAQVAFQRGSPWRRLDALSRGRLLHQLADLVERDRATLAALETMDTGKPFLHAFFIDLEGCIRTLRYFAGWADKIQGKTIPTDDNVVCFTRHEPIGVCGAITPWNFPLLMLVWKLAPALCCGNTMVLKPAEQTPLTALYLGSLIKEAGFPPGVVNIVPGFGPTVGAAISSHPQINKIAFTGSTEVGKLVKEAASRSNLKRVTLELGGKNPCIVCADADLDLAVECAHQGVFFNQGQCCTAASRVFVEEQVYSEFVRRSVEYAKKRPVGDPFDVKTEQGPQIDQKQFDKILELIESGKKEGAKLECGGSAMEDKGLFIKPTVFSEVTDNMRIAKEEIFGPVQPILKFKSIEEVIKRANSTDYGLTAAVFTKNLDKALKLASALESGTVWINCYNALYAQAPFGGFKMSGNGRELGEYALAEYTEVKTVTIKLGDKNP
Text: Cell lines were labeled with retroviral vectors with bi-cistronic expression of GFP/firefly luciferase to facilitate imaging and flow cytometry experiments. All cell lines were verified negative for mycoplasma contamination by monthly PCR analysis. No cells lines used here appear in the database of commonly misidentified cell lines (ICLAC). All cell lines were validated with STR analysis and compared to NCBI repository data.
(§3) Cells were counted, centrifuged and resuspended at 1,000,000 cells/mL in ALDEFLUOR™ buffer (Stemcell Technologies). ALDEFLUOR™ substrate (Stemcell Technologies, 1:200) and test compound or 1 mM DEAB were added to cell suspension and incubated at 37° C. for 45 minutes with vortexing every 15 minutes. Cells were centrifuged and resuspended in ALDEFLUOR™ buffer with DAPI at 5 μg/mL. Samples were analyzed with the BD LSR2 flow cytometry platform. Gating was performed using DEAB as a negative control.
A notable exception is liver cancer, where it is expected that a large ALDEFLUOR™-positive population exists, and is driven by ALDH1a1.

[3] = system: SUM159-M1a cells; assay: Bone metastasis xenograft, SUM159-M1a cells by intracardiac injection, BLI; format: in vivo, mouse; settings: MBE1 IP in conjunction with paclitaxel, intracardiac injection model
Experimental: as §1, §2

[4] = target: T2, ALDH1a3 (Homo sapiens, UniProt P47895); assay: ALDEFLUOR assay in SUM159 cells expressing ALDH isoforms 1a1, 1a2, 1a3, 3a1; format: cell-based; settings: SUM159 cells expressing ALDH 1a1, 1a2, 1a3 or 3a1
T2 construct: lentiviral vectors containing either the vector backbone or full-length human Aldh1a3; expressed in transfected cells; host or cells: SUM159-M1a (A1) and SUM159 (A7) breast cancer cells, lentiviral pLex vector, puromycin selection
T2 sequence (P47895 1-512): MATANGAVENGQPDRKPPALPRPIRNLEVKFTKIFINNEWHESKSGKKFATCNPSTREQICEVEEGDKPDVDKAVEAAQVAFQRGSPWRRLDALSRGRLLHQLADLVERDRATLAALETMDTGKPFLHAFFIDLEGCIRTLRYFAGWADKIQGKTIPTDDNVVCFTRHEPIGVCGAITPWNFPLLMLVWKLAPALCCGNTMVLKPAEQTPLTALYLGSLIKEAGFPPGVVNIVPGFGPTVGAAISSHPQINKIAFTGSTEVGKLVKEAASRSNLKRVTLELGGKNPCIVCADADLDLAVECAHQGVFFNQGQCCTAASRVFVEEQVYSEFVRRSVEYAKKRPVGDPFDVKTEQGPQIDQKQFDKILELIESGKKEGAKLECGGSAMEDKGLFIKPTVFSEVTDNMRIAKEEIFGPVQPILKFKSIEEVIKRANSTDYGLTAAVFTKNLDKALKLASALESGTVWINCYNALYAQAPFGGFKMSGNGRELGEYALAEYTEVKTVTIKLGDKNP
Experimental: The coding sequences of Aldh1a1, Aldh1a2, Aldh1a3 and Aldh3a1 were cloned from cDNA made from pooled human reference RNA samples. Cloned sequences flanked by Age1 and Xho1 restriction sites were inserted into the pLex lentiviral plasmid. Clones were sequenced and compared against NCBI expressed sequence tags (ESTs) for accuracy. Viral production of each enzyme was performed by transfection into the 293T packaging cell line using PEI along with PsPax2 and VSVG packaging vectors. Viruses were collected and filtered at 0.45 μm, then cells were transduced using polybrene (8 μg/mL) for 12 hours, followed by culture with 1 μg/mL puromycin for the duration of experiments. All viral transduction and selection was performed on a cell population-wide basis.
as §3
ALDH isoforms 1a1, 1a2, 1a3 and 3a1 were expressed in MCF7 or SUM159 cells, which were subsequently used in an ALDEFLUOR™ assay.

SMILES	lung metastasis by BLI (FIG. 5B) [1]	inhibition of ALDH1a3 activity in a variety of cancer types (FIG. 3A) [2]	bone metastasis by BLI (FIG. 6B) [3]	isoform specificity, percentage of ALDEFLUOR-positive SUM159 cells (FIG. 13C) [4]
CCc1cnccc1C(=O)Nc1cc2c(cc1F)NC(=O)CC2 [MBE1, 3-ethyl-N-(7-fluoro-2-oxo-1,2,3,4-tetrahydroquinolin-6-yl)isonicotinamide]	effective therapeutic to treat established metastatic disease	inhibited by MBE1 in many cancer types	effective therapeutic to treat established metastatic disease	
CCc1ccccc1C(=O)Nc1cc2c(cc1F)NC(=O)CC2 [MBE1.5, 2-ethyl-N-(7-fluoro-2-oxo-1,2,3,4-tetrahydroquinolin-6-yl)benzamide]				specifically inhibits ALDH1a3 at concentrations below 10 μM
